Test results published in patent US11524958B2, “Tricyclic compound as CRTH2 inhibitor” (CHIA TAI TIANQING PHARMACEUTICAL GROUP CO., LTD., priority 2016, dated 2022).

Target: T1, CRTH2 receptor (Homo sapiens, UniProt Q9Y5Y4)
T1 construct: host or cells: CHO-K1 (PathHunter β-arrestin line)
T1 sequence (Q9Y5Y4 1-395): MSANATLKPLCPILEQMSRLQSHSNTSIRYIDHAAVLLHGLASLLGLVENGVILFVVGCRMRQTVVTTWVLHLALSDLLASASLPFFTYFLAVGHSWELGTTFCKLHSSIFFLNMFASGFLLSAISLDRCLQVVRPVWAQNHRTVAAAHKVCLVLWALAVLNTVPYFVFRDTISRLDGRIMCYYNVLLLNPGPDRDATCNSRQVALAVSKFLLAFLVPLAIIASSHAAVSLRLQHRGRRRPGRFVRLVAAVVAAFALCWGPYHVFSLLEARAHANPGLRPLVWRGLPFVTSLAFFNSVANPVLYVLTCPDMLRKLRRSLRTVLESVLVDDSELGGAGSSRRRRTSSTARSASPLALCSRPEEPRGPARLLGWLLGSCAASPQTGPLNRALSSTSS
Experiment: PathHunter CHO-K1 CRTH2 β-arrestin assay (DiscoverX), antagonism of PGD2
Format: cell-based
Details: PathHunter CHO-K1 CRTH2 β-arrestin cells; compound 30 min, then EC80 agonist (PGD2) 90 min, 37° C.; chemiluminescent signal
Procedure: DiscoverX Corporation in the U.S was entrusted to complete this experiment by β-arrestin assay. The experimental method and results were listed below: PathHunter® CHO-K1 CRTH2 β-arrestin cells (DiscoverX, catalogue number 93-0291C2) grew under standard conditions, and were inoculated into a white-wall 384-well microplate at a density of 5,000 cells/well. 20 μL of Cell Plating Reagent 1 was used in each well. Before the test, the cells were incubated overnight at 37° C./5% CO2. A test compound was serially diluted in DMSO with a dilution factor of 3-fold to give 8 concentrations of the test compound. Shortly before the test, the serially diluted test compound was further diluted with the test buffer to 5 times of the test concentration. 5 μL of the further diluted test compound was added to the cells, and the cells were incubated for 30 min at 37° C. The concentration of the solvent was 1%. 5 μL of 6× EC80 agonist (PGD2) buffer was added to the cells, and the cells were incubated for 90 min at 37° C. Measured signals were generated by one-time addition of 15 μL (50% v/v) of PathHunter detection mixture reagent and subsequent one-hour incubation. The microplate was read through the chemiluminescent signals of PerkinElmer Envision™ reader. Biological activity of the test compound was analyzed by CBIS data analysis suite (ChemInnovation, CA), and was denoted as IC50 value.

Structure (SMILES)	IC50 [nM]
CS(=O)(=O)c1ccc(Cc2c3n(c4ccccc24)CC(C(=O)O)CC3)c(C(F)(F)F)c1 (single isomer, unassigned) [Example 16 peak1]	> 1000
CS(=O)(=O)c1ccc(Cc2c3n(c4ccccc24)CC(C(=O)O)CC3)c(C(F)(F)F)c1 (single isomer, unassigned) [Example 16 peak2]	< 100
CS(=O)(=O)c1ccc(Cc2c3n(c4ccc(Cl)cc24)CC(C(=O)O)CC3)c(C(F)(F)F)c1 (single isomer, unassigned) [Example 22 peak1]	< 100
CS(=O)(=O)c1ccc(Cc2c3n(c4ccc(Cl)cc24)CC(C(=O)O)CC3)c(C(F)(F)F)c1 (single isomer, unassigned) [Example 22 peak2]	> 1000
CS(=O)(=O)c1ccc(Cc2c3n(c4ccc(F)cc24)CC(C(=O)O)CC3)c(C(F)(F)F)c1 (single isomer, unassigned) [Example 25 peak1]	100 to 1000
CS(=O)(=O)c1ccc(Cc2c3n(c4ccc(F)cc24)CC(C(=O)O)CC3)c(C(F)(F)F)c1 (single isomer, unassigned) [Example 25 peak2]	< 100
CS(=O)(=O)c1ccc(Cc2c3n(c4ccccc24)C(C(=O)O)CCC3)cc1 (stereo not shown) [Example 1]	> 1000
O=C(O)C1CCCc2c(Cc3cccnc3S(=O)(=O)c3ccccc3)c3ccccc3n21 (stereo not shown) [Example 2]	100 to 1000
CS(=O)(=O)c1ccc(Cc2c3n(c4ccccc24)C(C(=O)O)CCC3)c(C(F)(F)F)c1 (stereo not shown) [Example 6]	100 to 1000
CS(=O)(=O)c1ccc(Cc2c3n(c4ccccc24)C(CC(=O)O)CCC3)cc1 (stereo not shown) [Example 7]	> 1000
CS(=O)(=O)c1ccc(Cc2c3n(c4ccccc24)C(CC(=O)O)CCC3)c(C(F)(F)F)c1 (stereo not shown) [Example 8]	> 1000
CS(=O)(=O)c1ccc(Cc2c3n(c4ccccc24)CC(CC(=O)O)CC3)cc1 (stereo not shown) [Example 9]	> 1000
O=C(O)CC1CCc2c(Cc3ccc4ccccc4n3)c3ccccc3n2C1 (stereo not shown) [Example 10]	> 1000
O=C(O)CC1CCc2c(Cc3cccnc3S(=O)(=O)c3ccccc3)c3ccccc3n2C1 (stereo not shown) [Example 11]	> 1000
CS(=O)(=O)c1ccc(Cc2c3n(c4ccccc24)CC(CC(=O)O)CC3)c(C(F)(F)F)c1 (stereo not shown) [Example 15]	> 1000
CS(=O)(=O)c1ccc(Cc2c3n(c4ccccc24)CC(C(=O)O)CC3)c(C(F)(F)F)c1 (stereo not shown) [Example 16]	< 100
O=C(O)C1CCc2c(Cc3cccnc3S(=O)(=O)c3ccc(Cl)cc3)c3ccccc3n2C1 (stereo not shown) [Example 17]	100 to 1000
CC1(C(=O)O)CCc2c(Cc3ccc(S(C)(=O)=O)cc3C(F)(F)F)c3ccccc3n2C1 (stereo not shown) [Example 18]	> 1000
CC1(C(=O)O)CCc2c(Cc3ccc(C(F)(F)F)nc3)c3ccccc3n2C1 (stereo not shown) [Example 20]	> 1000
CC1(C(=O)O)CCc2c(Cc3ccc(S(C)(=O)=O)cc3F)c3ccccc3n2C1 (stereo not shown) [Example 21]	> 1000
CS(=O)(=O)c1ccc(Cc2c3n(c4ccc(Cl)cc24)CC(C(=O)O)CC3)c(C(F)(F)F)c1 (stereo not shown) [Example 22]	< 100
CS(=O)(=O)c1ccc(Cc2c3n(c4ccc(Cl)cc24)CC(C(=O)O)CC3)c(F)c1 (stereo not shown) [Example 23]	100 to 1000

Structure (SMILES)	IC50 [nM]
O=C(O)C1CCc2c(Cc3ccc4c(c3)CCS4(=O)=O)c3cc(Cl)ccc3n2C1 (stereo not shown) [Example 24]	> 1000
CS(=O)(=O)c1ccc(Cc2c3n(c4ccc(F)cc24)CC(C(=O)O)CC3)c(C(F)(F)F)c1 (stereo not shown) [Example 25]	< 100
CS(=O)(=O)c1ccc(Cc2c3n(c4ccc(F)cc24)CC(C(=O)O)CC3)c(F)c1 (stereo not shown) [Example 26]	100 to 1000
O=C(O)C1CCc2c(Cc3ccc4ccccc4n3)c3cc(F)ccc3n2C1 (stereo not shown) [Example 27]	> 1000
O=C(O)C1CCc2c(Cc3ccc4c(c3)CCS4(=O)=O)c3cc(F)ccc3n2C1 (stereo not shown) [Example 28]	> 1000
CS(=O)(=O)c1ccc(Cc2c3ccccc3n3cc(C(=O)O)ncc23)cc1 [Example 29]	> 1000
CS(=O)(=O)c1ccc(Cc2c3ccccc3n3cc(C(=O)O)ncc23)cn1 [Example 30]	> 1000
CS(=O)(=O)c1ccc(Cc2c3ccccc3n3cc(C(=O)O)ncc23)c(C(F)(F)F)c1 [Example 31]	> 1000
CS(=O)(=O)c1ccc(Cc2c3n(c4ccccc24)CC(C(=O)O)C3)c(C(F)(F)F)c1 (stereo not shown) [Example 32]	100 to 1000
O=C(O)C1CCc2c(Cc3ccc4c(c3)C(F)C(F)(F)S4(=O)=O)c3cc(F)ccc3n2C1 (stereo not shown) [Example 33]	> 1000
COc1ccc2c(c1)c(Cc1ccc(S(C)(=O)=O)cc1C(F)(F)F)c1n2CC(C(=O)O)CC1 (stereo not shown) [Example 34]	< 100
CS(=O)(=O)c1ccc(Cc2c3n(c4ccc(OC(F)F)cc24)CC(C(=O)O)CC3)c(C(F)(F)F)c1 (stereo not shown) [Example 35]	< 100
O=C(O)C1CCc2c(Cc3cc4c(cc3C(F)(F)F)S(=O)(=O)CC4)c3cc(F)ccc3n2C1 (stereo not shown) [Example 36]	> 1000
O=C(O)C1CCc2c(Cc3cc4c(cc3C(F)(F)F)S(=O)(=O)CC4)c3cc(Cl)ccc3n2C1 (stereo not shown) [Example 37]	> 1000
O=C(O)C1CCc2c(Cc3cccc4c3CCS4(=O)=O)c3cc(F)ccc3n2C1 (stereo not shown) [Example 38]	> 1000
CS(=O)(=O)c1ccc(Cc2c3n(c4ccccc24)CC(C(=O)O)CC3)nc1 (stereo not shown) [Example 39]	> 1000
COc1cc(C(F)(F)F)c(Cc2c3n(c4ccccc24)CC(C(=O)O)CC3)cn1 (stereo not shown) [Example 40]	> 1000
CS(=O)(=O)c1ccc(Cc2c3n(c4ccccc24)CC(C(=O)O)CC3)cn1 (stereo not shown) [Example 41]	> 1000
CS(=O)(=O)c1ccc(Cc2c3n(c4ncccc24)CC(C(=O)O)CC3)c(C(F)(F)F)c1 (stereo not shown) [Example 42]	> 1000
O=C(O)C1CCc2c(Cc3ccc4c(c3)C(F)(F)CCS4(=O)=O)c3cc(F)ccc3n2C1 (stereo not shown) [Example 43]	> 1000
O=C(O)C1CCc2c(Cc3ccc4c(c3)S(=O)(=O)CC4)c3cc(F)ccc3n2C1 (stereo not shown) [Example 44]	> 1000
